Values joined by “and” are separate entries in the source; they are usually repeats but may differ in a detail not shown here. Equal entries are not always repeated.
Tests used:
Homo sapiens [1] = experiment: Effect of co-administered drugs on the AUC and Cmax for Simvastatin, and its active metabolite Simvastatin acid. The geometric mean AUC and Cmax ratio (Ratio: with/without co-administered drug) for Simvastatin acid following single dose co-administration of Simvastatin with different drugs.; assay type: ADME, organism-based; details: in vivo, po, dosed compound id 2, dosed compound name SIMVASTATIN, regimen Single dose, tissue Plasma
Homo sapiens [2] = experiment: Effect of the co-administered drugs on the AUC and Cmax of simvastatin and simvastatin acid. The geometric mean AUC and Cmax ratio (Ratio: with/without co-administered drug) for simvastatin and simvastatin acid following multpile dose co-administration of simvastatin with different drugs.; assay type: ADME, organism-based; details: in vivo, po, dose 20 mg, dosed compound id 2, dosed compound name SIMVASTATIN, regimen Every 24h, tissue Plasma
[3] = dose 20 mg, interact cpd dose 2 g
[4] = dose 20 mg, interact cpd dose 237 mL, inter cpd dosed level low, inter cpd dos duration 3 days
[5] = dose 40 mg, interact cpd dose 600 mg, inter cpd dos duration 3 days
[6] = dose 60 mg, interact cpd dose 200 mL, inter cpd dosed level high, inter cpd dos duration 2 days
[7] = dose 80 mg, interact cpd dose 10 mg, inter cpd dos duration 10 days
[8] = dose 80 mg, interact cpd dose 120 mg, inter cpd dos duration 10 days
[9] = dose 80 mg, interact cpd dose 160 mg, inter cpd dos duration 14 days, study dosing duration 7 days
[10] = dose 80 mg, interact cpd dose 200 mg, inter cpd dos duration 4 days
[11] = dose 80 mg, interact cpd dose 240 mg, inter cpd dos duration 3 days

CCC(C)(C)C(=O)O[C@H]1C[C@@H](C)C=C2C=C[C@H](C)[C@H](CC[C@@H](O)C[C@@H](O)CC(=O)O)[C@H]21 [TENIVASTATIN]
Ratio AUC (Homo sapiens [1]; [3]): 1.6 | Ratio Cmax (Homo sapiens [1]; [3]): 1.84 | Ratio AUC (Homo sapiens [1]; [4]): 1.3 | Ratio AUC (Homo sapiens [1]; [5]): 2.85 | Ratio Cmax (Homo sapiens [1]; [5]): 2.18 | Ratio Cmax (Homo sapiens [1]; [6]): 7 | Ratio AUC (Homo sapiens [1]; [7]): 1.58 | Ratio Cmax (Homo sapiens [1]; [7]): 1.56 | Ratio AUC (Homo sapiens [1]; [8]): 2.69 | Ratio Cmax (Homo sapiens [1]; [8]): 2.69 | Ratio AUC (Homo sapiens [1]; [9]): 0.64 | Ratio Cmax (Homo sapiens [1]; [9]): 0.89 | Ratio AUC (Homo sapiens [1]; [10]): 12 | Ratio Cmax (Homo sapiens [1]; [10]): 15 and 13.1 | Ratio AUC (Homo sapiens [1]; [11]): 2.3 | Ratio Cmax (Homo sapiens [1]; [11]): 2.4

CCC(C)(C)C(=O)O[C@H]1C[C@@H](C)C=C2C=C[C@H](C)[C@H](CC[C@@H]3C[C@@H](O)CC(=O)O3)[C@H]21 [SIMVASTATIN]
Ratio AUC (Homo sapiens [1]; [3]): 1.4 | Ratio Cmax (Homo sapiens [1]; [3]): 1.08 | Ratio AUC (Homo sapiens [1]; [4]): 1.9 | Ratio AUC (Homo sapiens [1]; [5]): 1.35 | Ratio Cmax (Homo sapiens [1]; [5]): 0.91 | Ratio AUC (Homo sapiens [1]; [6]): 16 | Ratio AUC (Homo sapiens [1]; [7]): 1.77 | Ratio Cmax (Homo sapiens [1]; [7]): 1.47 | Ratio AUC (Homo sapiens [1]; [8]): 3.1 | Ratio Cmax (Homo sapiens [1]; [8]): 2.88 | Ratio AUC (Homo sapiens [1]; [9]): 0.89 | Ratio Cmax (Homo sapiens [1]; [9]): 0.83 | Ratio AUC (Homo sapiens [1]; [10]): 8.9 | Ratio Cmax (Homo sapiens [1]; [10]): 5.3 and 13.1 | Ratio Cmax (Homo sapiens [1]; [11]): 2.1 | Ratio AUC (Homo sapiens [1]; dose 80 mg, interact cpd dose 240 mg, inter cpd dos duration 7 days): 2.5 | Ratio Cmax (Homo sapiens [2]; interact cpd dose 200 mg, inter cpd dos duration 4 days): 6.2 | Ratio AUC (Homo sapiens [2]; interact cpd dose 1250 mg, inter cpd dos duration 14 days, study dosing duration 28 days): 6
